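Method: 48-hour compound exposure of cells in 96-well plates, five concentrations, linear interpolation of endpoints. The concentration for 50% growth inhibition is given as GI50.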 Active and inactive are the calls of the source. Rule as the data show it: active = GI50 up to about 1.1 µM and inactive = higher.
Tests used:
Assay in all cases: NCI-60 cell line screen, 48 h
786-0 = tested on: 786-0
NCI/ADR-RES = tested on: NCI/ADR-RES
HCC 2998 = tested on: HCC 2998
RPMI-8226 = tested on: RPMI-8226
MDA-MB-435 = tested on: MDA-MB-435
OVCAR-4 = tested on: OVCAR-4
K562 = tested on: K562
NCI-H23 = tested on: NCI-H23
HT-29 = tested on: HT-29
MOLT-4 = tested on: MOLT-4
CCRF-CEM = tested on: CCRF-CEM
SK-MEL-28 = tested on: SK-MEL-28
Hs-578T = tested on: Hs-578T
NCI-H226 = tested on: NCI-H226
MDA-N = tested on: MDA-N
CAKI-1 = tested on: CAKI-1
U-251 = tested on: U-251
A549 = tested on: A549
SK-MEL-2 = tested on: SK-MEL-2
Malme-3M = tested on: Malme-3M

Row | Structure (SMILES) | GI50 (786-0) | GI50 (NCI/ADR-RES) | GI50 (HCC 2998) | GI50 (RPMI-8226) | GI50 (MDA-MB-435) | GI50 (OVCAR-4) | GI50 (K562) | GI50 (NCI-H23) | GI50 (HT-29) | GI50 (MOLT-4) | GI50 (CCRF-CEM) | GI50 (SK-MEL-28) | GI50 (Hs-578T) | GI50 (NCI-H226) | GI50 (MDA-N) | GI50 (CAKI-1) | GI50 (U-251) | GI50 (A549) | GI50 (SK-MEL-2) | GI50 (Malme-3M)
1 | CC(=O)O[C@@]12CO[C@@H]1C[C@@H](O)[C@@]1(C)C(=O)[C@H](O)C3=C(C)[C@@H](OC(=O)[C@H](O)[C@@H](NC(=O)c4ccccc4)c4ccccc4)C[C@@](O)([C@@H](OC(=O)c4ccccc4)C12)C3(C)C (some centres undefined) | 0.0628 µM (active) | 20.8 µM (inactive) | 0.0212 µM (active) | < 0.01 µM (active) | < 0.01 µM (active) | 24.7 µM (inactive) | 0.0156 µM (active) | 0.0379 µM (active) | < 0.01 µM (active) | < 0.01 µM (active) | 0.0103 µM (active) | 0.748 µM (active) | < 0.01 µM (active) | 17.4 µM (inactive) | < 0.01 µM (active) | 1.82 µM (inactive) | 0.141 µM (active) | 0.083 µM (active) | < 0.01 µM (active) | –
2 | CC(=O)OC(C)C1C2=C(C(=O)CC1(C)O)C(=O)c1c(ccc(-c3ccc4c(c3O)C(=O)C3=C(C4=O)C(C(C)OC(C)=O)C(C)(O)CC3=O)c1O)C2=O (centres undefined) | 1.83 µM (inactive) | 15.8 µM (inactive) | 10.7 µM (inactive) | 0.483 µM (active) | 2.14 µM (inactive) | 2.24 µM (inactive) | 0.701 µM (active) | 1.47 µM (inactive) | 1.72 µM (inactive) | 1.12 µM (inactive) | 0.308 µM (active) | 2.12 µM (inactive) | 2.11 µM (inactive) | 9.33 µM (inactive) | 3.15 µM (inactive) | 2.82 µM (inactive) | 1.72 µM (inactive) | 5.47 µM (inactive) | 1.75 µM (inactive) | 0.724 µM (active)
3 | O=Cc1[nH]c(=O)[nH]c(=O)c1CCl | 74.8 µM (inactive) | > 100 µM (inactive) | > 100 µM (inactive) | > 48.6 µM (inactive) | > 100 µM (inactive) | > 60.5 µM (inactive) | 50.8 µM (inactive) | > 100 µM (inactive) | > 88.9 µM (inactive) | > 96.8 µM (inactive) | > 52.7 µM (inactive) | > 100 µM (inactive) | > 100 µM (inactive) | > 100 µM (inactive) | > 100 µM (inactive) | > 100 µM (inactive) | > 61 µM (inactive) | > 100 µM (inactive) | > 90.2 µM (inactive) | > 100 µM (inactive)
4 | O=C1/C(=N/O)Cc2c(Br)ccc(Br)c21 | 74 µM (inactive) | 35.7 µM (inactive) | 24.2 µM (inactive) | 24.4 µM (inactive) | 39.6 µM (inactive) | 33.3 µM (inactive) | 26 µM (inactive) | 58.7 µM (inactive) | > 100 µM (inactive) | 25.4 µM (inactive) | 27.8 µM (inactive) | 60.3 µM (inactive) | 37.8 µM (inactive) | 68.1 µM (inactive) | 48.3 µM (inactive) | 42.4 µM (inactive) | 39.6 µM (inactive) | – | 17.9 µM (inactive) | –
5 | Cc1nc2ccc(C(F)(F)F)cc2nc1NCc1ccc(Cl)c(Cl)c1 | 16.6 µM (inactive) | 19.9 µM (inactive) | 10.5 µM (inactive) | 17.1 µM (inactive) | 17.4 µM (inactive) | – | 20.4 µM (inactive) | 16 µM (inactive) | 15 µM (inactive) | 15.6 µM (inactive) | 15.5 µM (inactive) | 18.4 µM (inactive) | 23.6 µM (inactive) | 18.1 µM (inactive) | 17.3 µM (inactive) | 18.8 µM (inactive) | 16.5 µM (inactive) | 16.4 µM (inactive) | – | 17.2 µM (inactive)
6 | CC(=O)c1ccc2c(c1)CC1(C2)Cc2ccc3c(c2C1=O)CCC3 (centres undefined) | 17.6 µM (inactive) | 20.1 µM (inactive) | 15 µM (inactive) | 16.1 µM (inactive) | 17.9 µM (inactive) | 19.2 µM (inactive) | 15 µM (inactive) | 31.2 µM (inactive) | 15.2 µM (inactive) | 14.9 µM (inactive) | 24.3 µM (inactive) | 20.3 µM (inactive) | 31.5 µM (inactive) | 19 µM (inactive) | 21.8 µM (inactive) | 23.2 µM (inactive) | 34.8 µM (inactive) | 23.4 µM (inactive) | 17.1 µM (inactive) | 18 µM (inactive)
7 | CC(C)OC(=O)[C@@H]1OC(C)(C)O[C@H]1C(=O)OC(C)C | > 100 µM (inactive) | > 100 µM (inactive) | > 100 µM (inactive) | > 100 µM (inactive) | > 100 µM (inactive) | > 100 µM (inactive) | > 100 µM (inactive) | > 100 µM (inactive) | > 100 µM (inactive) | > 100 µM (inactive) | > 100 µM (inactive) | – | > 100 µM (inactive) | > 100 µM (inactive) | > 100 µM (inactive) | > 100 µM (inactive) | > 100 µM (inactive) | > 100 µM (inactive) | > 100 µM (inactive) | > 100 µM (inactive)
8 | N#CCCN(CCC#N)c1ccc(C(/N=N/c2ccccc2)=N\c2ccccc2)cc1 | > 100 µM (inactive) | > 100 µM (inactive) | > 100 µM (inactive) | > 100 µM (inactive) | > 100 µM (inactive) | > 100 µM (inactive) | > 100 µM (inactive) | > 100 µM (inactive) | > 100 µM (inactive) | > 100 µM (inactive) | > 100 µM (inactive) | > 100 µM (inactive) | > 100 µM (inactive) | > 100 µM (inactive) | > 100 µM (inactive) | > 100 µM (inactive) | > 100 µM (inactive) | > 100 µM (inactive) | > 100 µM (inactive) | –
9 | Cn1c2ccccc2c2ccc3c(c21)C(=O)c1ccc2c4ccccc4n(C)c2c1C3=O | 99.1 µM (inactive) | > 100 µM (inactive) | > 100 µM (inactive) | > 100 µM (inactive) | > 100 µM (inactive) | > 65.5 µM (inactive) | > 100 µM (inactive) | > 100 µM (inactive) | > 100 µM (inactive) | > 100 µM (inactive) | > 100 µM (inactive) | > 100 µM (inactive) | > 100 µM (inactive) | > 100 µM (inactive) | > 100 µM (inactive) | > 100 µM (inactive) | > 100 µM (inactive) | > 100 µM (inactive) | > 100 µM (inactive) | 87.5 µM (inactive)
10 | CCN1C(=O)c2ccccc2C1(O)c1ccc(Cl)cc1 (centres undefined) | 76.9 µM (inactive) | 16.5 µM (inactive) | > 100 µM (inactive) | 61.9 µM (inactive) | 83.2 µM (inactive) | > 100 µM (inactive) | > 100 µM (inactive) | 38.2 µM (inactive) | 41.9 µM (inactive) | 47.3 µM (inactive) | 59.8 µM (inactive) | 94 µM (inactive) | > 100 µM (inactive) | 16.8 µM (inactive) | > 100 µM (inactive) | > 100 µM (inactive) | 64.9 µM (inactive) | 25 µM (inactive) | 18.7 µM (inactive) | –
11 | COCCOCCOC1=CC(=O)c2c(O)ccc(O)c2C1=O | 1.8 µM (inactive) | 1.96 µM (inactive) | 1.82 µM (inactive) | 1.37 µM (inactive) | 0.0278 µM (active) | 1.73 µM (inactive) | 0.671 µM (active) | 1.69 µM (inactive) | 0.518 µM (active) | 2.04 µM (inactive) | 1.41 µM (inactive) | 1.54 µM (inactive) | 2.47 µM (inactive) | 2.3 µM (inactive) | 0.153 µM (active) | 0.729 µM (active) | – | 1.75 µM (inactive) | 1.84 µM (inactive) | 0.149 µM (active)
12 | Oc1ccccc1/C=N/c1nc2cc3sc(/N=C/c4ccccc4O)nc3cc2s1 | > 81.1 µM (inactive) | > 100 µM (inactive) | > 100 µM (inactive) | > 35.3 µM (inactive) | > 95.9 µM (inactive) | 69.7 µM (inactive) | 67.3 µM (inactive) | 6.21 µM (inactive) | 26.2 µM (inactive) | 0.889 µM (active) | 4.74 µM (inactive) | > 100 µM (inactive) | 21.5 µM (inactive) | 26.4 µM (inactive) | > 100 µM (inactive) | 37.2 µM (inactive) | > 70.5 µM (inactive) | 6.98 µM (inactive) | > 100 µM (inactive) | > 100 µM (inactive)
13 | COc1cc(NCc2ccc3n2-c2ccccc2OC3)cc(OC)c1OC | 47.1 µM (inactive) | 4.25 µM (inactive) | 16.1 µM (inactive) | 7.89 µM (inactive) | 14 µM (inactive) | 16.1 µM (inactive) | 8.36 µM (inactive) | 35.2 µM (inactive) | 35.5 µM (inactive) | – | 12.6 µM (inactive) | 38.3 µM (inactive) | 35.4 µM (inactive) | 28.8 µM (inactive) | 21.1 µM (inactive) | 27 µM (inactive) | 18.4 µM (inactive) | 17.6 µM (inactive) | 20 µM (inactive) | 15.1 µM (inactive)
14 | CC1(C)CC2C=C(C=O)C3(C=O)CC3(C)C2C1 (centres undefined) | 1.52 µM (inactive) | 1.76 µM (inactive) | 5.5 µM (inactive) | 0.378 µM (active) | 1.75 µM (inactive) | 1.73 µM (inactive) | 1.1 µM (active) | 1.83 µM (inactive) | 1.41 µM (inactive) | 0.191 µM (active) | 0.0468 µM (active) | 2.06 µM (inactive) | 2.24 µM (inactive) | 4.21 µM (inactive) | 2.9 µM (inactive) | 2.05 µM (inactive) | 1.79 µM (inactive) | 10.2 µM (inactive) | 2.07 µM (inactive) | –

Source: ChEMBL document CHEMBL1201862, “PubChem BioAssay data set” (2004)
